How the values were obtained:
[1] = test system: acute cerebral ischemic stroke patients; assay: Phase III study in acute cerebral ischemic stroke patients, modified Rankin Scale at day 90; format: in vivo, human; conditions: for Odds ratio, change in mRS of 2 or more / Odds ratio, mRS of 0-2 day 90 / Relative Risk, change in mRS of 2 or more / Relative Risk, mRS of 0-2 day 90: control vs sovateltide; for Modified Rankin Scale Day 90, mean: day 90 post-randomization; for Difference between means (B − A) ± SEM, Modified Rankin Scale Day 90: sovateltide minus control
Procedure: A prospective, multicentric, randomized phase III study was conducted in acute cerebral ischemic stroke patients aged 18 years through 78 years. Patients with radiologic confirmation of ischemic stroke could be enrolled if presenting up to 24 hours after the onset of symptoms and with a modified Rankin Score (mRS) of 3 to 4 and an NIHSS (National Institute of Health Stroke Scale) score of greater than 5. Patients with intracranial haemorrhage and those receiving endovascular therapy were excluded.
Patients were randomized in a 1:1 ratio, 80 patients to the sovateltide group and 78 patients to the control (saline) group. Every patient received the standard of care (SOC) and was followed for 90 days. The study drug (normal saline or sovateltide (0.3 μg/kg) was administered in three doses administered as an intravenous bolus over 1 minute at an interval of 3 hours±1 hour on day 1, day 3, and day 6 (total sovateltide dose of 0.9 μg/kg/day).
The primary objectives were to determine the neurological outcome based on modified Rankin Scale (mRS) score, National Institute of Health Stroke Scale (NIHSS) score, and Barthel Index (BI) scale score from day 1 through day 90. In addition, quality-of-Life was measured by EuroQol-EQ-5D (EQ-5D) and stroke-specific quality-of-life (SSQoL) scores at 60 days and 90 days of treatment.
A total of 158 patients with acute cerebral ischemic stroke were enrolled in this test, of which 137 completed 90-day follow-up. Patients received saline (n=70; 45 male and 25 female) or sovateltide (n=67; 45 male and 22 female) within 24 hours of the onset of stroke. Patients received the investigational drug […] at 16.85±0.74 and 17.40±0.67 hours (mean±SEM, p=0.583) of stroke onset in control and sovateltide cohorts, respectively. The baseline characteristics and SOC in both cohorts were similar.

[2] = Solution stability, related substances HPLC method validation (Method 1); conditions: standard solution at 5° C.; related substances Method 1
Excerpt: Chromatographic Parameters for method validation of Related Substance of Sovateltide Injection (Method 1): Method-1 utilizes chromatographic conditions to separate and quantify a specific compound of interest. The analytical column used is either the Xtimate C18 Column or the ChromCore 120 C18 Column, both with dimensions of 4.6×250 mm and 5 m. A Ghost Buster Column with dimensions of 4.6×50 mm is used to detect any unexpected peaks, which are usually called ghost peaks that may interfere with the results. The flow rate is set to 0.5 mL/min, with an injection volume of 90 μL. The detection wavelength is 215 nm, and the auto sampler temperature is maintained at 5° C. The column oven temperature is set to 50° C., and the run time for the method is 120 min. […] These parameters ensure the separation and accurate quantification of the compound in the sample.
• Mobile Phase A (KH2PO4+ Sodium Chloride in HPLC water). • Mobile Phase-B (Methanol).

[3] = with cerebrolysin, listed as sovateltide
[4] = with citicoline, listed as sovateltide
[5] = with mannitol, sovateltide group n=30
[6] = with mannitol, sovateltide group n=30, listed as sovateltide
[7] = with thrombolytics, listed as sovateltide

Substance: succinyl-(glutamyl(9)-alanyl(11,15))-endothelin-1 (8-21) [Sovateltide]
- Number of patients with change in mRS < 2 from day 1 to day 90 ([1]; with cerebrolysin): 1
- Number of patients with mRS 0-2 day 90 ([1]; with cerebrolysin): 11
- Number of patients with mRS > 2 day 90 ([1]; with cerebrolysin): 1
- Number of patients, change in mRS of 2 or more from day 1 to day 90 (column head mRS > 2) ([1]; with cerebrolysin): 11
- Percentage of row total, change in mRS < 2 ([1]; with cerebrolysin): 8.33%
- Percentage of row total, change in mRS ≥ 2 ([1]; with cerebrolysin): 91.67%
- Percentage of row total, mRS 0-2 day 90 ([1]; with cerebrolysin): 91.67%
- Percentage of row total, mRS > 2 day 90 ([1]; with cerebrolysin): 8.33%
- Odds ratio, change in mRS of 2 or more ([1]; with cerebrolysin): 0.5455
- Odds ratio, mRS of 0-2 day 90 ([1]; with cerebrolysin): 0.8462
- Relative Risk, change in mRS of 2 or more ([1]; with cerebrolysin): 0.9351
- Relative Risk, mRS of 0-2 day 90 ([1]; with cerebrolysin): 0.8571
- Modified Rankin Scale Day 90, mean ([1]; with cerebrolysin, sovateltide group n=12): 0.7500
- Number of patients with mRS 0-2 day 90 [1, 3]: similar
- Number of patients, change in mRS of 2 or more from day 1 to day 90 (column head mRS > 2) [1, 3]: similar
- Difference between means (B − A) ± SEM, Modified Rankin Scale Day 90 ([1]; with cerebrolysin): −0.3214 ± 0.3517
- Number of patients with change in mRS < 2 from day 1 to day 90 ([1]; with citicoline): 5
- Number of patients with change in mRS ≥ 2 from day 1 to day 90 ([1]; with citicoline): 18
- Number of patients with mRS 0-2 day 90 ([1]; with citicoline): 21
- Number of patients with mRS > 2 day 90 ([1]; with citicoline): 3
- Percentage of row total, change in mRS < 2 ([1]; with citicoline): 21.74%
- Percentage of row total, change in mRS ≥ 2 ([1]; with citicoline): 78.26%
- Percentage of row total, mRS 0-2 day 90 ([1]; with citicoline): 87.50%
- Percentage of row total, mRS > 2 day 90 ([1]; with citicoline): 12.50%
- Odds ratio, change in mRS of 2 or more ([1]; with citicoline): 0.3283
- Odds ratio, mRS of 0-2 day 90 ([1]; with citicoline): 4.500
- Relative Risk, change in mRS of 2 or more ([1]; with citicoline): 0.6921
- Relative Risk, mRS of 0-2 day 90 ([1]; with citicoline): 3.130
- Modified Rankin Scale Day 90, mean ([1]; with citicoline, sovateltide group n=24): 1.208
- Modified Rankin Scale Day 90, mean ([1]; with citicoline, sovateltide group n=24, listed as sovateltide): significantly lower
- Number of patients with change in mRS ≥ 2 from day 1 to day 90 [1, 4]: significantly more
- Number of patients with mRS 0-2 day 90 [1, 4]: significantly more
- Difference between means (B − A) ± SEM, Modified Rankin Scale Day 90 ([1]; with citicoline): −0.7917 ± 0.3638
- Percentage of row total, change in mRS < 2 ([1]; with mannitol): 36.67%
- Percentage of row total, change in mRS ≥ 2 ([1]; with mannitol): 63.33%
- Percentage of row total, mRS 0-2 day 90 ([1]; with mannitol): 63.33%
- Percentage of row total, mRS > 2 day 90 ([1]; with mannitol): 36.67%
- Odds ratio, change in mRS of 2 or more ([1]; with mannitol): 0.3184
- Odds ratio, mRS of 0-2 day 90 ([1]; with mannitol): 2.735
- Relative Risk, change in mRS of 2 or more ([1]; with mannitol): 0.5603
- Relative Risk, mRS of 0-2 day 90 ([1]; with mannitol): 1.672
- Modified Rankin Scale Day 90, mean [1, 5]: 2.033
- Modified Rankin Scale Day 90, mean [1, 6]: significantly lower
- Number of patients with change in mRS < 2 from day 1 to day 90 [1, 5]: 11
- Number of patients with change in mRS ≥ 2 from day 1 to day 90 [1, 5]: 19
- Number of patients with mRS 0-2 day 90 [1, 5]: 19
- Number of patients with mRS > 2 day 90 [1, 5]: 11
- Number of patients with change in mRS ≥ 2 from day 1 to day 90 [1, 6]: significantly more
- Number of patients with mRS 0-2 day 90 [1, 6]: significantly more
- Difference between means (B − A) ± SEM, Modified Rankin Scale Day 90 ([1]; with mannitol): −0.7086 ± 0.3316
- Number of patients with change in mRS < 2 from day 1 to day 90 ([1]; with thrombolytics): 3
- Number of patients with change in mRS ≥ 2 from day 1 to day 90 ([1]; with thrombolytics): 6
- Number of patients with mRS 0-2 day 90 ([1]; with thrombolytics): 6
- Number of patients with mRS > 2 day 90 ([1]; with thrombolytics): 3
- Percentage of row total, change in mRS < 2 ([1]; with thrombolytics): 33.33%
- Percentage of row total, change in mRS ≥ 2 ([1]; with thrombolytics): 66.67%
- Percentage of row total, mRS 0-2 day 90 ([1]; with thrombolytics): 66.67%
- Percentage of row total, mRS > 2 day 90 ([1]; with thrombolytics): 33.33%
- Odds ratio, change in mRS of 2 or more ([1]; with thrombolytics): 0.7500
- Odds ratio, mRS of 0-2 day 90 ([1]; with thrombolytics): 1.333
- Relative Risk, change in mRS of 2 or more ([1]; with thrombolytics): 0.9000
- Relative Risk, mRS of 0-2 day 90 ([1]; with thrombolytics): 1.200
- Modified Rankin Scale Day 90, mean ([1]; with thrombolytics, sovateltide group n=9): 1.667
- Number of patients with change in mRS ≥ 2 from day 1 to day 90 [1, 7]: similar
- Number of patients with mRS 0-2 day 90 [1, 7]: similar
- Difference between means (B − A) ± SEM, Modified Rankin Scale Day 90 ([1]; with thrombolytics): −0.2833 ± 0.6321
- Time standard solution is stable [2]: up to 60 Hours

Reference: patent publication US20260130858A1, “LYOPHILIZED SOVATELTIDE-BASED INJECTABLE FORMULATION AND A PROCESS FOR PREPARATION” (PHARMAZZ, INC., priority 2023, published 2026)
